{"source": "the NIST ThermoML archive (doi:10.1016/j.jct.2005.02.003)", "key": {"[1]": {"experiment": "Molar enthalpy of transition or fusion", "details": "Crystal; Adiabatic calorimetry"}, "[2]": {"details": "Crystal; Adiabatic calorimetry"}}, "note": "± gives the expanded uncertainty stated by the source."}
{"compound": "CC(C)COC(C)(C)C", "note": "[isobutyl tert-butyl ether]", "values": [{"measurement": "Molar enthalpy of transition or fusion", "setting": "[1]", "value": "2.067 ± 0.012", "unit": "kcal/mol"}, {"measurement": "Triple point temperature", "setting": "[2]", "value": "162.33 ± 0.05", "unit": "K"}]}
